Results reported in patent US12522607B2, “Substituted pyrazolo[3,4-d]pyrimidines as wee-1 inhibitors” (WIGEN BIOMEDICINE TECHNOLOGY (SHANGHAI) CO., LTD., priority 2020, dated 2026).

Experiments:
Wee-1 kinase = target: T1, Wee-1 kinase (Homo sapiens, UniProt P30291); assay: Inhibitory activity against Wee-1 kinase (Lanthra Screen Wee-1 kinase kit, Tracer 178); type: binding; conditions: Wee-1 kinase 5 nM, Tracer 178 50 nM, 1 h room temperature
T1 construct: purchased Invitrogen
Experimental: Example 342. Assay for Inhibitory Activity of Compounds Against Wee-1 Kinase
The inhibitory activity of compounds against Wee-1 kinase was determined by using the Lanthra Screen Wee-1 kinase kit (Invitrogen). 5 μL of the compound diluted in a gradient with DMSO, 5 μL. of Wee-1 kinase (at a final concentration of 5 nM), 5 μL of an Eu-Anti-GST antibody (at a final concentration of 2 nM) mixture and 5 μL of kinase Tracer 178 (at a final concentration of 50 nM) were mixed well. The plate was read after incubation at room temperature for one hour. For comparison with the DMSO solvent control group, IC50 for the inhibition activity of the compounds against Wee-1 kinase was calculated.

HT29 cells = assay: Antiproliferative activity against HT29 cells (Cell Titer-Lumi, ATP content); type: cell-based; conditions: Homo sapiens, HT-29, 72 after compound addition, read-out: HT-29 cells Anti-proliferative activity (IC50 for the inhibition against HT-29 cell growth)
Experimental: Example 343. Assay for Antiproliferative Activity Against HT29 Cells
3000 HT29 cells were seed in a 384-well plate (Fisher 142762). After the cells adhered to the wall overnight, the compounds diluted in a gradient were added. 72 later, Cell Titer-Lumi (Beyotime C0068XL) was added to determine the content of ATP in the cells. The growth of the cells was evaluated, and the IC50 for the inhibition of the compounds against cell growth was calculated.

T1 sequence (P30291 whole entry): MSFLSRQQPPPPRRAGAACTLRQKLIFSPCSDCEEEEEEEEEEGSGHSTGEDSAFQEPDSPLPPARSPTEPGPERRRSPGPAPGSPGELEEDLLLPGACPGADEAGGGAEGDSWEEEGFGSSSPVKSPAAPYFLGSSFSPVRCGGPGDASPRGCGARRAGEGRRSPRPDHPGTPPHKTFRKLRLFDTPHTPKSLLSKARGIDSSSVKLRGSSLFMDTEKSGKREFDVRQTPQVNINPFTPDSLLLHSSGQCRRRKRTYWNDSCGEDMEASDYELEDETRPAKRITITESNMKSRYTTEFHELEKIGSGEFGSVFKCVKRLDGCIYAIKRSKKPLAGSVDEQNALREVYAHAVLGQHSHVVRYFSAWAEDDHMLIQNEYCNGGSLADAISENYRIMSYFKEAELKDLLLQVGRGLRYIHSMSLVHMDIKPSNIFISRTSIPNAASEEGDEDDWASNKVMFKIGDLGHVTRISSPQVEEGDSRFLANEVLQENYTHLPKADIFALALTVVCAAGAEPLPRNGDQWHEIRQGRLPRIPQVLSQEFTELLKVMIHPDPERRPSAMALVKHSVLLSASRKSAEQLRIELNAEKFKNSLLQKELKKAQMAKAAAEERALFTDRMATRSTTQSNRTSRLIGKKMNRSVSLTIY

Row | Structure (SMILES) | IC50 (Wee-1 kinase) | IC50 (HT29 cells)
1 | C=CCn1c(=O)c2cnc(Nc3cc(C)c(N4CCNCC4)c(F)c3)nc2n1-c1ccc(=O)n(C(C)C)n1 [Compound 55] | ≤ 30 nM | ≤ 1000 nM
2 | C=CCn1c(=O)c2cnc(Nc3cc(C)c(N4CCN(C)CC4)c(F)c3)nc2n1-c1ccc(=O)n(C(C)C)n1 [Compound 56] | ≤ 30 nM | ≤ 1000 nM
3 | C=CCn1c(=O)c2cnc(Nc3cc(C)c(N4CCNCC4)c(Cl)c3)nc2n1-c1ccc(=O)n(C(C)C)n1 [Compound 57] | ≤ 30 nM | ≤ 1000 nM
4 | C=CCn1c(=O)c2cnc(Nc3cc(C)c(N4CCN(C)CC4)c(Cl)c3)nc2n1-c1ccc(=O)n(C(C)C)n1 [Compound 58] | ≤ 30 nM | ≤ 1000 nM
5 | C=CCn1c(=O)c2cnc(Nc3cc(F)c(N4CCNCC4)c(Cl)c3)nc2n1-c1ccc(=O)n(C(C)C)n1 [Compound 59] | ≤ 30 nM | ≤ 1000 nM
6 | C=CCn1c(=O)c2cnc(Nc3cc(F)c(N4CCN(C)CC4)c(Cl)c3)nc2n1-c1ccc(=O)n(C(C)C)n1 [Compound 60] | ≤ 30 nM | ≤ 1000 nM
7 | C=CCn1c(=O)c2cnc(Nc3cc(Cl)c(N4CCNCC4)c(Cl)c3)nc2n1-c1ccc(=O)n(C(C)C)n1 [Compound 61] | ≤ 30 nM | ≤ 1000 nM
8 | C=CCn1c(=O)c2cnc(Nc3cc(Cl)c(N4CCN(C)CC4)c(Cl)c3)nc2n1-c1ccc(=O)n(C(C)C)n1 [Compound 62] | ≤ 30 nM | ≤ 1000 nM
9 | C=CCn1c(=O)c2cnc(Nc3cc(F)c(N4CCNCC4)c(OC)c3)nc2n1-c1ccc(=O)n(C(C)C)n1 [Compound 63] | ≤ 30 nM | ≤ 1000 nM
10 | C=CCn1c(=O)c2cnc(Nc3cc(F)c(N4CCN(C)CC4)c(OC)c3)nc2n1-c1ccc(=O)n(C(C)C)n1 [Compound 64] | ≤ 30 nM | ≤ 1000 nM
11 | C=CCn1c(=O)c2cnc(Nc3cc(Cl)c(N4CCNCC4)c(OC)c3)nc2n1-c1ccc(=O)n(C(C)C)n1 [Compound 65] | ≤ 30 nM | ≤ 1000 nM
12 | C=CCn1c(=O)c2cnc(Nc3cc(Cl)c(N4CCN(C)CC4)c(OC)c3)nc2n1-c1ccc(=O)n(C(C)C)n1 [Compound 66] | ≤ 30 nM | ≤ 1000 nM
13 | C=CCn1c(=O)c2cnc(Nc3cccc(N4CCNCC4)c3)nc2n1-c1ccc(=O)n(C(C)C)n1 [Compound 67] | ≤ 30 nM | ≤ 1000 nM
14 | C=CCn1c(=O)c2cnc(Nc3cccc(N4CCN(C)CC4)c3)nc2n1-c1ccc(=O)n(C(C)C)n1 [Compound 68] | ≤ 30 nM | ≤ 1000 nM
15 | C=CCn1c(=O)c2cnc(Nc3cc(C)cc(N4CCNCC4)c3)nc2n1-c1ccc(=O)n(C(C)C)n1 [Compound 69] | ≤ 30 nM | ≤ 1000 nM
16 | C=CCn1c(=O)c2cnc(Nc3cc(C)cc(N4CCN(C)CC4)c3)nc2n1-c1ccc(=O)n(C(C)C)n1 [Compound 70] | ≤ 30 nM | ≤ 1000 nM
17 | C=CCn1c(=O)c2cnc(Nc3cc(F)cc(N4CCNCC4)c3)nc2n1-c1ccc(=O)n(C(C)C)n1 [Compound 71] | ≤ 30 nM | ≤ 1000 nM
18 | C=CCn1c(=O)c2cnc(Nc3cc(F)cc(N4CCN(C)CC4)c3)nc2n1-c1ccc(=O)n(C(C)C)n1 [Compound 72] | ≤ 30 nM | ≤ 1000 nM
19 | C=CCn1c(=O)c2cnc(Nc3cc(Cl)cc(N4CCNCC4)c3)nc2n1-c1ccc(=O)n(C(C)C)n1 [Compound 73] | ≤ 30 nM | ≤ 1000 nM
20 | C=CCn1c(=O)c2cnc(Nc3cc(Cl)cc(N4CCN(C)CC4)c3)nc2n1-c1ccc(=O)n(C(C)C)n1 [Compound 74] | ≤ 30 nM | ≤ 1000 nM
21 | C=CCn1c(=O)c2cnc(Nc3cc(OC)cc(N4CCNCC4)c3)nc2n1-c1ccc(=O)n(C(C)C)n1 [Compound 76] | ≤ 30 nM | ≤ 1000 nM
22 | C=CCn1c(=O)c2cnc(Nc3ccc(N4CC(N(C)C)C4)cc3)nc2n1-c1ccc(=O)n(C(C)C)n1 [Compound 77] | ≤ 30 nM | ≤ 1000 nM
23 | C=CCn1c(=O)c2cnc(Nc3ccc(N4CC(N(C)C)C4)c(C)c3)nc2n1-c1ccc(=O)n(C(C)C)n1 [Compound 78] | ≤ 30 nM | ≤ 1000 nM
